pIC50: −log10 of the molar value. Where two headings read alike, the source gives them in different places.
Legend:
CK1ε = CK1ε (Homo sapiens, UniProt P49674); assay: CK1ε kinase assay (Caliper LabChip electrophoretic separation of fluoresceinated peptide substrate and product); assay type: biochemical; details: 200 pM CK1ε, 50 μM ATP, 1.5 μM peptide, 22 hours at room temperature
Method in brief: (§1)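 IC50 values were obtained by non-linear regression from eleven-concentration titrations. The kinase reactions were incubated for 22 hours at room temperature before termination with 35 mM EDTA.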

CK1δ = CK1δ (Homo sapiens, UniProt P48730); assay: CK1δ kinase assay (Caliper LabChip electrophoretic separation of fluoresceinated peptide substrate and product); assay type: biochemical; details: 200 pM CK1δ, 50 μM ATP, 1.5 μM peptide, 22 hours at room temperature
Method in brief: as §1

CK1δ, sequence (P48730 whole entry): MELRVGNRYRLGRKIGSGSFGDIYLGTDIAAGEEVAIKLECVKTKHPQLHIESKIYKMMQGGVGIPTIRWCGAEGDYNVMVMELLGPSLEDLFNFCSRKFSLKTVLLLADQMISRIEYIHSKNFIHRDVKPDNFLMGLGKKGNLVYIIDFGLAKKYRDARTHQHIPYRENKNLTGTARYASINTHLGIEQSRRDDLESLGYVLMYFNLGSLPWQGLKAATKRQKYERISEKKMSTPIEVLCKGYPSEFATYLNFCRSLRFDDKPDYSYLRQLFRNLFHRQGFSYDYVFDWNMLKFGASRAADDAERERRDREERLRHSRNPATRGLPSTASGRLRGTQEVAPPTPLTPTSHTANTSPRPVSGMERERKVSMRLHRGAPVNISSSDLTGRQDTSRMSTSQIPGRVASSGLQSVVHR
CK1ε, sequence (P49674 whole entry): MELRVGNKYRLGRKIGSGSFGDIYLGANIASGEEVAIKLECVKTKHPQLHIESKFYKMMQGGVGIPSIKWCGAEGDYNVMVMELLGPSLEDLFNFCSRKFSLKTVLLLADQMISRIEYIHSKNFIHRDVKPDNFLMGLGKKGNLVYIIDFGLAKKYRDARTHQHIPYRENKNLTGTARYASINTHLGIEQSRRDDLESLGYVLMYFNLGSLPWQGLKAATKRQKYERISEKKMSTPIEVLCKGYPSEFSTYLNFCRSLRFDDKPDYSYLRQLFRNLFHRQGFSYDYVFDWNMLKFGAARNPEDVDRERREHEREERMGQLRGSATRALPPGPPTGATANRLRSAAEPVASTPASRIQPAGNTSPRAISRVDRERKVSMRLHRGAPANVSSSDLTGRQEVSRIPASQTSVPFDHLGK

SMILES	pIC50 (CK1ε; read-out: CK1ε IC50 range)	pIC50 (CK1δ; read-out: CK1δ IC50 range)	pIC50 (CK1ε; read-out: CK1ε)	pIC50 (CK1δ; read-out: CK1δ)
N#Cc1ccc([C@H]2C[C@@H](NC(=O)N3CCn4nc(-c5ccc(Cl)c(Cl)c5)c(C(N)=O)c4C3)C2)cc1 [Compound 283, N^5-((1s,3s)-3-(4-Cyanophenyl)cyclobutyl)-2-(3,4-dichlorophenyl)-6,7-dihydropyrazolo[1,5-a]pyrazine-3,5(4H)-dicarboxamide]	8.00 to 11.00	8.00 to 11.00	–	–
N#Cc1ccc([C@H]2C[C@@H](NC(=O)N3CCn4nc(-c5cccc(Cl)c5)c(C(N)=O)c4C3)C2)cc1 [Compound 284, 2-(3-Chlorophenyl)-N^5-((1s,3s)-3-(4-cyanophenyl)cyclobutyl)-6,7-dihydropyrazolo[1,5-a] pyrazine-3,5(4H)-dicarboxamide]	8.00 to 11.00	8.00 to 11.00	–	–
CC1(C)CC(NC(=O)N2CCn3nc(-c4ccc(F)c(Cl)c4)c(C(N)=O)c3C2)C1 [Compound 285, 2-(3-Chloro-4-fluorophenyl)-N^5-(3,3-dimethylcyclobutyl)-6,7-dihydropyrazolo[1,5-a]pyrazine-3,5(4H)-dicarboxamide]	8.00 to 11.00	8.00 to 11.00	–	–
CC1(C)CC(NC(=O)N2CCn3nc(-c4cccc(Cl)c4)c(C(N)=O)c3C2)C1 [Compound 286]	8.00 to 11.00	8.00 to 11.00	–	–
CC1(C)CC(NC(=O)N2CCn3nc(-c4ccc(Cl)c(Cl)c4)c(C(N)=O)c3C2)C1 [Compound 287, 2-(3,4-Dichlorophenyl)-N^5-(3,3-dimethylcyclobutyl)-6,7-dihydropyrazolo[1,5-a] pyrazine-3,5(4H)-dicarboxamide]	8.00 to 11.00	8.00 to 11.00	–	–
NC(=O)c1c(-c2ccc(F)c(Cl)c2)nn2c1CN(C(=O)NC1CC(F)(F)C1)CC2 [Compound 291, 2-(3-Chloro-4-fluorophenyl)-N^5-(3,3-difluorocyclobutyl)-6,7-dihydropyrazolo[1,5-a]pyrazine-3,5(4H)-dicarboxamide]	8.00 to 11.00	8.00 to 11.00	8.85	9.05
NC(=O)c1c(-c2cccc(Cl)c2)nn2c1CN(C(=O)NC1CC(F)(F)C1)CC2 [Compound 292, 2-(3-Chlorophenyl)-N^5-(3,3-difluorocyclobutyl)-6,7-dihydropyrazolo[1,5-a]pyrazine-3,5(4H)-dicarboxamide]	7.00 to 8.00	7.00 to 8.00	–	–
NC(=O)c1c(-c2cc(Cl)cc(Cl)c2)nn2c1CN(C(=O)NC1CC(F)(F)C1)CC2 [Compound 293, 2-(3,5-Dichlorophenyl)-N^5-(3,3-difluorocyclobutyl)-6,7-dihydropyrazolo[1,5-a] pyrazine-3,5(4H)-dicarboxamide]	8.00 to 11.00	8.00 to 11.00	–	–
NC(=O)c1c(-c2ccc(Cl)c(Cl)c2)nn2c1CN(C(=O)NC1CC(F)(F)C1)CC2 [Compound 294, 2-(3,4-Dichlorophenyl)-N^5-(3,3-difluorocyclobutyl)-6,7-dihydropyrazolo[1,5-a] pyrazine-3,5(4H)-dicarboxamide]	8.00 to 11.00	8.00 to 11.00	–	–
NC(=O)c1c(-c2cc(F)cc(Cl)c2)nn2c1CN(C(=O)NC1CC(F)(F)C1)CC2 [Compound 295, 2-(3-Chloro-5-fluorophenyl)-N^5-(3,3-difluorocyclobutyl)-6,7-dihydropyrazolo[1,5-a] pyrazine-3,5(4H)-dicarboxamide]	8.00 to 11.00	8.00 to 11.00	–	–
CC1(NC(=O)N2CCn3nc(-c4ccc(F)c(Cl)c4)c(C(N)=O)c3C2)CC(F)(F)C1 [Compound 296, 2-(3-Chloro-4-fluorophenyl)-N^5-(3,3-difluoro-1-methylcyclobutyl)-6,7-dihydropyrazolo[1,5-a]pyrazine-3,5(4H)-dicarboxamide]	8.00 to 11.00	8.00 to 11.00	–	–
CC1(NC(=O)N2CCn3nc(-c4ccc(Cl)c(Cl)c4)c(C(N)=O)c3C2)CC(F)(F)C1 [Compound 297, 2-(3,4-Dichlorophenyl)-N^5-(3,3-difluoro-1-methylcyclobutyl)-6,7-dihydropyrazolo[1,5-a] pyrazine-3,5(4H)-dicarboxamide]	8.00 to 11.00	8.00 to 11.00	9.52	9.30
CC1(NC(=O)N2CCn3nc(-c4cc(Cl)cc(Cl)c4)c(C(N)=O)c3C2)CC(F)(F)C1 [Compound 298, 2-(3,5-Dichlorophenyl)-N^5-(3,3-difluoro-1-methylcyclobutyl)-6,7-dihydropyrazolo[1,5-a] pyrazine-3,5(4H)-dicarboxamide]	8.00 to 11.00	8.00 to 11.00	–	–
CC1(NC(=O)N2CCn3nc(-c4cccc(Cl)c4)c(C(N)=O)c3C2)CC(F)(F)C1 [Compound 299, 2-(3-Chlorophenyl)-N^5-(3,3-difluoro-1-methylcyclobutyl)-6,7-dihydropyrazolo[1,5-a] pyrazine-3,5(4H)-dicarboxamide]	8.00 to 11.00	8.00 to 11.00	–	–
CC1(NC(=O)N2CCn3nc(-c4cc(F)cc(Cl)c4)c(C(N)=O)c3C2)CC(F)(F)C1 [Compound 300, 2-(3-Chloro-5-fluorophenyl)-N^5-(3,3-difluoro-1-methylcyclobutyl)-6,7-dihydropyrazolo[1,5-a]pyrazine-3,5(4H)-dicarboxamide]	8.00 to 11.00	8.00 to 11.00	–	–
NC(=O)c1c(-c2ccc(F)c(Cl)c2)nn2c1CN(C(=O)NC1(C(F)F)CC(F)(F)C1)CC2 [Compound 304, 2-(3-Chloro-4-fluorophenyl)-N^5-(1-(difluoromethyl)-3,3-difluorocyclobutyl)-6,7-dihydropyrazolo[1,5-a]pyrazine-3,5(4H)-dicarboxamide]	8.00 to 11.00	8.00 to 11.00	–	–
NC(=O)c1c(-c2ccc(Cl)c(Cl)c2)nn2c1CN(C(=O)NC1(C(F)F)CC(F)(F)C1)CC2 [Compound 305, 2-(3,4-Dichlorophenyl)-N^5-(1-(difluoromethyl)-3,3-difluorocyclobutyl)-6,7-dihydropyrazolo[1,5-a] pyrazine-3,5(4H)-dicarboxamide]	8.00 to 11.00	8.00 to 11.00	–	–
NC(=O)c1c(-c2cccc(Cl)c2)nn2c1CN(C(=O)NC1(C(F)F)CC(F)(F)C1)CC2 [Compound 306, 2-(3-Chlorophenyl)-N^5-(1-(difluoromethyl)-3,3-difluorocyclobutyl)-6,7-dihydropyrazolo[1,5-a] pyrazine-3,5(4H)-dicarboxamide]	8.00 to 11.00	8.00 to 11.00	–	–
CC1(F)CC(C)(NC(=O)N2CCn3nc(-c4ccc(F)c(Cl)c4)c(C(N)=O)c3C2)C1 (stereo not shown) [Compound 307, 2-(3-Chloro-4-fluorophenyl)-N^5-(3-fluoro-1,3-dimethylcyclobutyl)-6,7-dihydropyrazolo[1,5-a]pyrazine-3,5(4H)-dicarboxamide]	8.00 to 11.00	8.00 to 11.00	–	–
NC(=O)c1c(-c2ccc(F)c(Cl)c2)nn2c1CN(C(=O)NC1(c3ccc(F)cc3)CC(F)(F)C1)CC2 [Compound 308, 2-(3-Chloro-4-fluorophenyl)-N^5-(3,3-difluoro-1-(4-fluorophenyl)cyclobutyl)-6,7-dihydropyrazolo[1,5-a]pyrazine-3,5(4H)-dicarboxamide]	8.00 to 11.00	8.00 to 11.00	–	–
NC(=O)c1c(-c2cccc(Cl)c2)nn2c1CN(C(=O)NC1(c3ccc(F)cc3)CC(F)(F)C1)CC2 [Compound 309, 2-(3-Chlorophenyl)-N^5-(3,3-difluoro-1-(4-fluorophenyl)cyclobutyl)-6,7-dihydropyrazolo[1,5-a] pyrazine-3,5(4H)-dicarboxamide]	8.00 to 11.00	8.00 to 11.00	–	–
NC(=O)c1c(-c2ccc(Cl)c(Cl)c2)nn2c1CN(C(=O)NC1(c3ccc(F)cc3)CC(F)(F)C1)CC2 [Compound 310, 2-(3,4-Dichlorophenyl)-N^5-(3,3-difluoro-1-(4-fluorophenyl)cyclobutyl)-6,7-dihydropyrazolo[1,5-a] pyrazine-3,5(4H)-dicarboxamide]	8.00 to 11.00	8.00 to 11.00	–	–
NC(=O)c1c(-c2ccc(F)c(Cl)c2)nn2c1CN(C(=O)NC1(c3cccnc3)CC(F)(F)C1)CC2 [Compound 311, 2-(3-Chloro-4-fluorophenyl)-N^5-(3,3-difluoro-1-(pyridin-3-yl)cyclobutyl)-6,7-dihydropyrazolo[1,5-a]pyrazine-3,5(4H)-dicarboxamide]	8.00 to 11.00	8.00 to 11.00	–	–
NC(=O)c1c(-c2cccc(Cl)c2)nn2c1CN(C(=O)NC1(c3cccnc3)CC(F)(F)C1)CC2 [Compound 312, 2-(3-Chlorophenyl)-N^5-(3,3-difluoro-1-(pyridin-3-yl)cyclobutyl)-6,7-dihydropyrazolo[1,5-a]pyrazine-3,5(4H)-dicarboxamide]	8.00 to 11.00	8.00 to 11.00	–	–
NC(=O)c1c(-c2ccc(Cl)c(Cl)c2)nn2c1CN(C(=O)NC1(c3cccnc3)CC(F)(F)C1)CC2 [Compound 313, 2-(3,4-Dichlorophenyl)-N^5-(3,3-difluoro-1-(pyridin-3-yl)cyclobutyl)-6,7-dihydropyrazolo[1,5-a]pyrazine-3,5(4H)-dicarboxamide]	8.00 to 11.00	8.00 to 11.00	–	–
N#Cc1ccc(C2(NC(=O)N3CCn4nc(-c5ccc(F)c(Cl)c5)c(C(N)=O)c4C3)CC(F)(F)C2)cc1 [Compound 314, 2-(3-Chloro-4-fluorophenyl)-N^5-(1-(4-cyanophenyl)-3,3-difluorocyclobutyl)-6,7-dihydropyrazolo[1,5-a]pyrazine-3,5(4H)-dicarboxamide]	8.00 to 11.00	8.00 to 11.00	–	–
N#Cc1ccc(C2(NC(=O)N3CCn4nc(-c5cccc(Cl)c5)c(C(N)=O)c4C3)CC(F)(F)C2)cc1 [Compound 315, 2-(3-Chlorophenyl)-N^5-(1-(4-cyanophenyl)-3,3-difluorocyclobutyl)-6,7-dihydropyrazolo[1,5-a]pyrazine-3,5(4H)-dicarboxamide]	8.00 to 11.00	8.00 to 11.00	–	–
